Assay results taken from patent publication US10472347B2, “Aminopyrazine compounds with A2A antagonist properties” (Merck Sharp & Dohme Corp., priority 2014, dated 2019).

target: T1, human A2a receptor (Homo sapiens, UniProt P29274); assay: A2a competition binding assay, Scintillation Proximity technology; conditions: membranes from HEK293 cells expressing human A2a receptor; Ki by Cheng-Prusoff equation
T1 construct: purchased Perkin-Elmer RBHA2AM400UA; host or cells: HEK293 cells (membranes)
How it was run: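 SPA competition: 0.5 nM tritiated pyrazolotriazolopyrimidine ligand displaced by compound at 3000 to 0.15 nM, 1 h room temperature, human A2a HEK293 membranes pretreated with adenosine deaminase, PBS/10 mM MgCl2 buffer. CGS15943 1 μM defined non-specific binding; EC50 converted to Ki via Cheng-Prusoff.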

T1 sequence (P29274 whole entry): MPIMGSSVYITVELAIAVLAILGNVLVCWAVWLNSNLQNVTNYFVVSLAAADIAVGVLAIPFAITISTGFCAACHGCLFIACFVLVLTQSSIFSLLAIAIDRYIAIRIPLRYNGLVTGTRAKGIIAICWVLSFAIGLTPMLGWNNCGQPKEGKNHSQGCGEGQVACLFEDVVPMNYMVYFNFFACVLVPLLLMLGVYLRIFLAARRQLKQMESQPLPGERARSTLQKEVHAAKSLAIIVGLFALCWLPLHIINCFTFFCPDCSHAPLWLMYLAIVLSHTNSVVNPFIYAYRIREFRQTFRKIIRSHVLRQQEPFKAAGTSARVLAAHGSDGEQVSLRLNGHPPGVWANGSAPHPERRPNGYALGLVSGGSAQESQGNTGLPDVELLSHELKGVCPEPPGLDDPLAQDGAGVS

| SMILES | Ki |
| --- | --- |
| Nc1nc(-n2nccn2)c(Cl)nc1C(=O)NCCc1ccccc1Br [Ex-289, 3-amino-N-[2-(2-bromophenyl)ethyl]-6-chloro-5-(2H-1,2,3-triazol-2-yl)pyrazine-2-carboxamide] | 34.8 nM |
| Cc1nc(C(=O)NCc2cccs2)c(N)nc1-c1ncco1 [Ex-132, 3-amino-6-methyl-5-(1,3-oxazol-2-yl)-N-(thiophen-2-ylmethyl)pyrazine-2-carboxamide] | 0.357 nM |
| Cc1cc(Cl)cc(Cl)c1CNC(=O)c1nc(C)c(-c2cnco2)nc1N [Ex-258, 3-amino-N-(2,4-dichloro-6-methylbenzyl)-6-methyl-5-(1,3-oxazol-5-yl)pyrazine-2-carboxamide] | 2.9 nM |
| Cc1nc(C(=O)NC2CCCc3cccnc32)c(N)nc1-c1ncco1 (single isomer, unassigned) [Ex-230A, 3-amino-6-methyl-5-(1,3-oxazol-2-yl)-N-(5,6,7,8-tetrahydroquinolin-8-yl)pyrazine-2-carboxamide] | 3.74 nM |
| Cc1nc(C(=O)NC2CCN(c3ncccn3)CC2)c(N)nc1-c1ncco1 [Ex-66, 3-amino-6-methyl-5-(1,3-oxaol-2-yl)-N-(1-pyrimidin-2-ylpiperidin-4-yl)pyrazine-2-carboxamide] | 24.4 nM |
| Cc1nc(C(=O)NCc2ccc(O)cc2)c(N)nc1-c1ncco1 [Ex-155, 3-amino-N-(4-hydroxybenzyl)-6-methyl-5-(1,3-oxazol-2-yl)pyrazine-2-carboxamide] | 13.9 nM |
| Cc1cccnc1CNC(=O)c1nc(C)c(-n2nccn2)nc1N [Ex-277, 3-amino-6-methyl-N-[(3-methylpyridin-2-yl)methyl]-5-(2H-1,2,3-triazol-2-yl)pyrazine-2-carboxamide] | 3.3 nM |
| Cc1nc(C(=O)NCc2cccc(C(C)C)n2)c(N)nc1-c1ncco1 [Ex-85, 3-amino-6-methyl-N-{[6-(1-methylethyl)pyridin-2-yl]methyl}-5-(1,3-oxazol-2-yl)pyrazine-2-carboxamide] | 0.7 nM |
| Cc1nc(C(=O)NCc2ncc(F)cn2)c(N)nc1-c1ncco1 [Ex-109, 3-amino-N-[(5-fluoropyrimidin-2-yl)methyl]-6-methyl-5-(1,3-oxazol-2-yl)pyrazine-2-carboxamide] | 15 nM |
| Cc1nc(C(=O)N[C@H]2CCc3ccc(F)cc32)c(N)nc1-c1ncco1 [Ex-201, 3-amino-N-[(1S)-6-fluoro-2,3-dihydro-1H-inden-1-yl]-6-methyl-5-(1,3-oxazol-2-yl)pyrazine-2-carboxamide] | 0.633 nM |
| Cc1nc(C(=O)NCc2ccc(Cl)cn2)c(N)nc1-c1ncco1 [Ex-49, 3-amino-N-[(5-chloropyridin-2-yl)methyl]-6-methyl-5-(1,3-oxazol-2-yl)pyrazine-2-carboxamide] | 1.26 nM |
| Cc1nc(C(=O)NCCc2ccccn2)c(N)nc1-c1ncco1 [Ex-25, 3-amino-6-methyl-5-(1,3-oxazol-2-yl)-N-(2-pyridin-2-ylethyl)pyrazine-2-carboxamide] | 16.2 nM |
| Cc1cnn(-c2nc(N)c(C(=O)NCc3cccc4c3C(=O)NC4)nc2Cl)c1 [Ex-363, 3-amino-6-chloro-5-(4-methyl-1H-pyrazol-1-yl)-N-[(3-oxo-2,3-dihydro-1H-isoindol-4-yl)methyl]pyrazine-2-carboxamide] | 0.5 nM |
| Nc1nc(-n2cccn2)c(Cl)nc1C(=O)NCc1cccc2cccnc12 [Ex-332, 3-amino-6-chloro-5-(1H-pyrazol-1-yl)-N-(quinolin-8-ylmethyl)pyrazine-2-carboxamide] | 4.1 nM |
| Cc1nc(C(=O)NC2CCCC2(F)F)c(N)nc1-c1ncco1 (single isomer, unassigned) [Ex-191B, 3-amino-N-(2,2-difluorocyclopentyl)-6-methyl-5-(1,3-oxazol-2-yl)pyrazine-2-carboxamide] | 2.56 nM |
| Cc1nc(C(=O)NCc2cc(C(F)(F)F)ccn2)c(N)nc1-c1ncco1 [Ex-42, 3-amino-6-methyl-5-(1,3-oxazol-2-yl)-N-{[4-(trifluoromethyl)pyridin-2-yl]methyl}pyrazine-2-carboxamide] | 0.672 nM |
| CCn1cnc2c(CNC(=O)c3nc(C)c(-c4ncco4)nc3N)cccc21 [Ex-193, 3-amino-N-[(1-ethyl-1H-benimidazol-4-yl)methyl]-6-methyl-5-(1,3-oxazol-2-yl)pyrazine-2-carboxamide] | 0.435 nM |
| Cc1nc(C(=O)NC2CCCC2(F)F)c(N)nc1-c1ncco1 (single isomer, unassigned) [Ex-191A, 3-amino-N-(2,2-difluorocyclopentyl)-6-methyl-5-(1,3-oxazol-2-yl)pyrazine-2-carboxamide] | 1.33 nM |
| Cc1nc(C(=O)NCC(=O)N2CCC2)c(N)nc1-c1ncco1 [Ex-68, 3-amino-N-(2-azetidin-1-yl-2-oxoethyl)-6-methyl-5-(1,3-oxazol-2-yl)pyrazine-2-carboxamide] | 27.3 nM |
| CCOc1cccc(F)c1CNC(=O)c1nc(C)c(-c2ncco2)nc1N [Ex-173, 3-amino-N-(2-ethoxy-6-fluorobenzyl)-6-methyl-5-(1,3-oxazol-2-yl)pyrazine-2-carboxamide] | 0.191 nM |

| SMILES | Ki |
| --- | --- |
| COC(=O)[C@@H](NC(=O)c1nc(Cl)c(-n2nccn2)nc1N)c1ccccc1 [Ex-323, methyl (2S)-({[3-amino-6-chloro-5-(2H-1,2,3-triazol-2-yl)pyrazin-2-yl]carbonyl}amino) (phenyl)ethanoate] | 65.3 nM |
| Nc1nc(-n2cccn2)c(Cl)nc1C(=O)NCc1ccc(F)cc1F [Ex-331, 3-amino-6-chloro-N-(2,4-difluorobenzyl)-5-(1H-pyrazol-1-yl)pyrazine-2-carboxamide] | 75.4 nM |
| COC[C@H]1CCC[C@H]1NC(=O)c1nc(C)c(-c2ncco2)nc1N (stereo in doubt) [Ex-171, 3-amino-N-[(1R,2S)-2-(methoxymethyl)cyclopentyl]-6-methyl-5-(1,3-oxazol-2-yl)pyrazine-2-carboxamide] | 1.03 nM |
| Cc1nc(C(=O)NCc2cccc(O)c2)c(N)nc1-c1ncco1 [Ex-158, 3-amino-N-(3-hydroxybenzyl)-6-methyl-5-(1,3-oxazol-2-yl)pyrazine-2-carboxamide] | 1.97 nM |
| Cc1nc(C(=O)NCc2ncccc2C(F)(F)F)c(N)nc1-c1ncco1 [Ex-18, 3-amino-6-methyl-5-(1,3-oxazol-2-yl)-N-{[3-(trifluoromethyl)pyridin-2-yl]methyl}pyrazin-2-carboxamide] | 0.151 nM |
| Cc1nc(C(=O)NCc2nc(C)c(C)n2C)c(N)nc1-c1ncco1 [Ex-37, 3-amino-6-methyl-5-(1,3-oxazol-2-yl)-N-[(1,4,5-trimethyl-1H-imidazol-2-yl)methyl]pyrazine-2-carboxamide] | 7.77 nM |
| Nc1nc(-n2nccn2)c(Cl)nc1C(=O)NCCc1cnccn1 [Ex-311, 3-amino-6-chloro-N-(2-pyrazin-2-ylethyl)-5-(2H-1,2,3-triazol-2-yl)pyrazine-2-carboxamide] | 1160 nM |
| Nc1nc(-n2nccn2)c(Cl)nc1C(=O)NCC1CCCc2cccnc21 (stereo not drawn) [Ex-319, 3-amino-6-chloro-N-(5,6,7,8-tetrahydroquinolin-8-ylmethyl)-5-(2H-1,2,3-triazol-2-yl)pyrazine-2-carboxamide] | 77.9 nM |
| Cc1nc(C(=O)NCc2ccc[n+]([O-])c2)c(N)nc1-c1ncco1 [Ex-99, 3-amino-6-methyl-5-(1,3-oxazol-2-yl)-N-[(1-oxidopyridin-3-yl)methyl]pyrazine-2-carboxamide] | 208 nM |
| Cc1nc(C(=O)NC2CCCC(O)CC2)c(N)nc1-c1ncco1 (single isomer, unassigned) [Ex-165D, 3-amino-N-(4-hydroxycycloheptyl)-6-methyl-5-(1,3-oxazol-2-yl)pyrazine-2-carboxamide] | 9.34 nM |
| Cc1nc(C(=O)NCc2ncc(C(F)(F)F)cn2)c(N)nc1-c1ncco1 [Ex-126, 3-amino-6-methyl-5-(1,3-oxazol-2-yl)-N-{[5-(trifluoromethyl)pyrimidin-2-yl]methyl}pyrazine-2-carboxamide] | 83 nM |
| Nc1nc(-n2nccn2)c(Cl)nc1C(=O)NCc1cnn2ccccc12 [Ex-295, 3-amino-6-chloro-N-(pyrazolo[1,5-a]pyridin-3-ylmethyl)-5-(2H-1,2,3-triazol-2-yl)pyrazine-2-carboxamide] | 13.6 nM |
| Cc1nc(C(=O)N2CCCC(F)(F)C2)c(N)nc1-c1ncco1 [Ex-34, 3-[(3,3-difluoropiperidin-1-yl)carbonyl]-5-methyl-6-(1,3-oxazol-2-yl)pyrazin-2-amine] | 847 nM |
| Cc1nc(C(=O)NC2CC(O)c3cccnc32)c(N)nc1-c1ncco1 (stereo not drawn) [Ex-240A, 3-amino-N-(5-hydroxy-6,7-dihydro-5H-cyclopenta[b]pyridin-7-yl)-6-methyl-5-(1,3-oxazol-2-yl)pyrazine-2-carboxamide] | 40.5 nM |
| Cc1cnn(-c2nc(N)c(C(=O)NCc3ccccc3C(F)(F)F)nc2Cl)c1 [Ex-335, 3-amino-6-chloro-5-(4-methyl-1H-pyrazol-1-yl)-N-[2-(trifluoromethyl)benzyl] pyrazine-2-carboxamide] | 114 nM |
| Cc1nc(C(=O)NCc2n[nH]c3c2CCC3)c(N)nc1-c1ncco1 [Ex-103, 3-amino-6-methyl-5-(1,3-oxazol-2-yl)-N-(1,4,5,6-tetrahydrocyclopenta[c]pyrazol-3-ylmethyl)pyrazine-2-carboxamide] | 0.353 nM |
| COc1ncccc1CNC(=O)c1nc(C)c(-c2ncco2)nc1N [Ex-124, 3-amino-N-[(2-methoxypyridin-3-yl)methyl]-6-methyl-5-(1,3-oxazol-2-yl)pyrazine-2-carboxamide] | 1.77 nM |
| Cc1nc(C(=O)NC2CCc3c(Cl)ccnc32)c(N)nc1-c1ncco1 (single isomer, unassigned) [Ex-244B, 3-amino-N-(4-chloro-6,7-dihydro-5H-cyclopenta[b]pyridin-7-yl)-6-methyl-5-(1,3-oxazol-2-yl)pyrazine-2-carboxamide] | 1.28 nM |
| Cc1nc(C(=O)NCc2cc(Cl)ccn2)c(N)nc1-c1ncco1 [Ex-45, 3-amino-N-[(4-chloropyridin-2-yl)methyl]-6-methyl-5-(1,3-oxazol-2-yl)pyrazine-2-carboxamide] | 0.735 nM |
